Assay results from patent publication US5112944A, “Cyclic tetrapeptide and process for preparing the same” (Shionogi & Co., Ltd., priority 1989, dated 1992).
Where a SMILES comes first, the peptide text is derived from it. [ ]: non-standard residue; d: D form. Aoe = N[C@@H](CCCCCC(=O)[C@@H]1CO1)C(=O)O; dPip = O=C(O)[C@H]1CCCCN1

Experiments:
[1] = system: NIH3T3 cells transformed with sis oncogene; test: Detransformation activity (return of transformed cells to normal flat morphology); assay type: cell-based
Description: (§1) The employed culture solution was prepared by adding 9.5 g of DALBECCO'S EAGLE MEM medium (made by NISSUI SEIYAKU CO., LTD.) and 20 ml of 7% sodium bicarbonate to 1 l of distilled water and then adding fetal bovine serum (made by Flow Laboratories, Inc., U.S.A.) to be 10% by volume at the final concentration.
(§2) To each well of a 12-well plastic dish made by Flow Laboratories, Inc., 2 ml of the above-mentioned culture solution, 2×10^4 cells/ml of NIH3T3 cells transformed with sis oncogene (provided by National Cancer Institute of the U.S.; Science, 218, 1131 (1982)) and each test compound (RF-1023-A or RF-1023-B) in each concentration (5 to 400 ng/ml) were added and cultured at 37° C. in 5% CO2 incubator. Twenty-four hours later the morphology of the cells was observed and detransformation activity (activity for inhibiting transformation of NIH3T3 cells transformed with the oncogene and returning to normal flat morphology of cells) was estimated. Two days after the incubation, cells subjected to the medium containing RF-1023-A were dispersed with 0.05% trypsin, and the cell number was measured by means of hemocytometer.

[2] = system: NIH3T3 cells transformed with sis oncogene; test: Cell number / cell proliferation of transformed cells (hemocytometer); assay type: cell-based; conditions: for Cell number: 2 days after the incubation; for Percentage of increase: 2 days, untreated = 100
Description: as §1, §2

[3] = 24 hours, lowest concentration tested

| SMILES | Concentration at which detransformation activity is shown [1, 3] | Cell number ([2]; 5 ng/ml test compound) | Percentage of increase ([2]; 5 ng/ml test compound) | Cell number ([2]; 50 ng/ml test compound) | Percentage of increase ([2]; 50 ng/ml test compound) | Cell number ([2]; 100 ng/ml test compound) | Percentage of increase ([2]; 100 ng/ml test compound) | Cell number ([2]; 200 ng/ml test compound) | Percentage of increase ([2]; 200 ng/ml test compound) | Cell number ([2]; 400 ng/ml test compound) | Percentage of increase ([2]; 400 ng/ml test compound) | Concentration at which detransformation activity is shown ([1]; same experiment system) |
| --- | --- | --- | --- | --- | --- | --- | --- | --- | --- | --- | --- | --- |
| O=C1N[C@@H](Cc2ccccc2)C(=O)N2CCCC[C@@H]2C(=O)N[C@@H](CCCCCC(=O)[C@@H]2CO2)C(=O)N[C@H]1Cc1ccccc1 [RF-1023-A] (cyclo([Aoe]FF[dPip])) | 5 ng/mL | 3.8 × 10^5 | 35% | 3.4 × 10^5 | 29% | 1.5 × 10^5 | 0% | 1.1 × 10^5 | -6% | 1.1 × 10^5 | -6% |  |
| O=C1N[C@@H](Cc2ccccc2)C(=O)N2CCC[C@@H]2C(=O)N[C@@H](CCCCCC(=O)[C@@H]2CO2)C(=O)N[C@H]1Cc1ccccc1 [RF-1023-B] (cyclo(FF[dP][Aoe])) | 5 ng/mL |  |  |  |  |  |  |  |  |  |  |  |
| CC(=O)NCCCCCCNC(C)=O [hexamethylene bisacetamide, reference compound] |  |  |  |  |  |  |  |  |  |  |  | 3e+06 ng/mL |
